The record followed here is patent US9309285B2, “Macrocyclic broad spectrum antibiotics” (priority 2012, dated 2016).

By pIC50 is commonly meant the negative decadic logarithm of the IC50, by convention in mol/L. A low value points to a large IC50.

pIC50: −log10 of the molar value. Read-outs that look alike come from different tables or passages of the source.

The target in experiment [1] is T1, S. aureus SPase (Staphylococcus aureus, UniProt P0A070).
T1 construct: Full length His-tagged E. coli and S. aureus SPase proteins were expressed in E. coli BL21; His tag; made in house; host or cells: E. coli BL21 (DE3)
T1 sequence (P0A070 1-191): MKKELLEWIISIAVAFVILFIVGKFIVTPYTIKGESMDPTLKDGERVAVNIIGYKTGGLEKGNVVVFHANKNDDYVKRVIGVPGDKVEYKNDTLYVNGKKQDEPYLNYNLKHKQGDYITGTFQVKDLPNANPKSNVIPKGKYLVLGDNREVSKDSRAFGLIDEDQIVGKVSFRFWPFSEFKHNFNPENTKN
The experiment in a line: SPase enzyme inhibition assay, fluorogenic peptide substrate, S. aureus. It counts as biochemical. The procedure: (§1) Briefly, for expression of E. coli SPase, saturated overnight cultures grown in 20 ml of Luria-Bertani medium supplemented with ampicillin were subcultures into 1.5 L of Luria-Bertani, and shaken at 37° C. until an optical density at 600 nm of 0.4-0.5 was achieved. […] S. aureus SPase was expressed and purified similarly, with the following exceptions. […] Resin bound protein was washed in a similar buffer containing 1% Elugent in place of Triton X-100 prior to protein elution in wash buffer supplemented with 300 mM imidazole. […] All protein concentrations were determined by BCA assay.
(§2) Enzyme master solution was prepared by diluting Escherichia coli or Staphylococcus aureus SPase protein into reaction buffer to a final concentration of 3 nM or 10 nM respectively. Reaction buffer consisted of 20 mM NaKHPO4 pH 7.4, 100 mM NaCl, and 1% v/v Elugent™ detergent. Reactions were initiated by the addition of substrate to a final concentration of 20 μM. Reaction progress was monitored by measuring the increase in fluorescence signal (excitation at 314 nm, emission at 416 nm) using a SpectraMax M2 fluorescence microplate reader. […] Three-folder serial dilutions of test compounds, starting at 10 μM, were prepared in enzyme mix solution and incubated at room temperature for 10 minutes. Following this incubation, fluorogenic substrate was added to a final concentration of 20 μM and the increase in fluorescence, corresponding to substrate cleavage, was monitored continuously at room temperature for 1 hour. Initial reaction rates were calculated based on the rate of increase in fluorescence during the reaction. Reaction rates were plotted as a function of compound concentration, and IC50 values were determined nonlinear regression analysis (SoftMaxPro 5.4, Molecular Devices™) of the sigmoidal dose-response curve.

Experiment [2] has as its system Escherichia coli MC4100 harboring the IMP4213. The experiment in a line: MIC by broth micro-dilution (CLSI), E. coli. The note with it: E. coli MC4100 IMP4213 (increased outer-membrane permeability); cation adjusted Mueller Hinton Broth + 0.002% Tween-80; 35° C., 22 hours. The class given is cell-based. As to the method:
(§3) In vitro antimicrobial activity of each compound was determined by measuring minimal inhibitor concentrations (MICs) using the broth micro-dilution technique as approved by the Clinical and Laboratory Standards Institute (CLSI) (Methods for Dilution Antimicrobial Susceptibility Tests for Bacteria that Grow Aerobically; Approved Standard—Eighth Edition. CLSI document M07-A8. Wayne, Pa.: Clinical and Laboratroy Standards; 2009). Antibacterial activity was measure against two strains of bacteria: a Methicillin Resistant Staphylococcus aureus strain USA 300 (NRS384) and a strain of Escherichia coli MC4100 harboring the IMP4213, which results in increased outer-membrane permeability (B Martin and Silhavy T. Imp/OstA is required for cell envelope biogenesis in Escherichia coli. (2002) Molecular Microbiology, 45(5), 1289-1302). Cells were inoculated onto plates of Trypyticase Soy Agar or Luria Agar respectively and grown at 35° C. for 20 hours. Inocula suspensions were prepared by scraping cells into 1 ml of testing media (cation adjusted Mueller Hinton Broth supplemented with 0.002% v/v Tween-80) and diluting to a final OD600 nm of 0.01.
Test compounds were prepared in DMSO at a concentration of 10 mg/ml. […]
A general note: In broth dilution the organism is exposed to a series of concentrations in liquid medium.

Experiment [3] deals with T2, E. coli SPase (Escherichia coli, UniProt P00803).
T2 construct: Full length His-tagged E. coli and S. aureus SPase proteins were expressed in E. coli BL21; His tag; made in house; host or cells: E. coli BL21 (DE3)
The experiment in a line: SPase enzyme inhibition assay, fluorogenic peptide substrate, E. coli. It counts as biochemical. Particulars: for IC50: 3 nM E. coli SPase, 20 μM substrate, 10 minutes pre-incubation, room temperature, read-out: IC 50 (nM) E. coli. As to the method:
as §1, §2

Experiment [4] relates to Methicillin Resistant Staphylococcus aureus strain USA 300 (NRS384). The experiment in a line: MIC by broth micro-dilution (CLSI), S. aureus. It counts as cell-based. The note with it: MRSA USA 300 (NRS384), cation adjusted Mueller Hinton Broth + 0.002% Tween-80, 35° C., 22 hours; for MIC: Staphylococcus aureus, MRSA / NRS 384 / USA300, read-out: MIC (μg/mL) S. aureus. As to the method: as §3
Test compounds were prepared in DMSO at a concentration of 10 mg/ml. These compound stocks were diluted into testing media at a concentration of 64 μg/ml and serial 2-fold dilutions were made in the same media, in 96-well U bottom microtiter dishes, for a total of 10 compound concentrations. Inocula suspensions were added to the 2-fold serial dilutions of test compounds to a final density of OD OD600 nm of 0.0005 and incubated at 35° C. for 22 hours.

[5] abbreviates: read-out: IC 50 (nM) S. aureus; 10 nM S. aureus SPase, 20 μM substrate, 10 minutes pre-incubation, room temperature.

T2 sequence (P00803 whole entry): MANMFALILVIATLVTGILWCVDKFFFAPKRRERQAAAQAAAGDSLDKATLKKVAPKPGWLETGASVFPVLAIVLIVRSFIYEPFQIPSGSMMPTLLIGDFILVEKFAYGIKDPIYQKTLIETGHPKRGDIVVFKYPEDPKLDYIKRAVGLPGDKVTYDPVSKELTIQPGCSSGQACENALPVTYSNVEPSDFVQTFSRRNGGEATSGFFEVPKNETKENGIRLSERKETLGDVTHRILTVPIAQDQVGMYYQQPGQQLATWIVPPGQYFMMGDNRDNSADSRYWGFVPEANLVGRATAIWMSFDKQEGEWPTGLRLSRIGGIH

On to `CCCCc1ccc(-c2ccc(C(=O)NCC(C)C(=O)N[C@@H](CCN)C(=O)N(C)[C@@H]3C(=O)N[C@@H](C)C(=O)N[C@H](C(=O)O)Cc4ccc(O)c(c4)-c4cc3ccc4O)cc2)cc1` (single isomer, unassigned) [Compound 115], for which the IC50 in experiment [1] (10 nM S. aureus SPase, 20 μM substrate, 10 minutes pre-incubation, room temperature; read-out: IC 50 (nM) S. aureus) was 1900 nM; in experiment [3], 630 nM. Also, the “MIC (μg/mL) E. coli” value in experiment [2] is >64 µg/mL. Besides, in experiment [4], the “MIC (μg/mL) S. aureus” value was 64 µg/mL.

`CCCCc1ccc(-c2ccc(C(=O)N[C@@H](CCCCN)C(=O)N[C@H]3COCCCCC[C@@H](C(=O)N[C@@H](C)B4OC5C[C@@H]6C[C@@H](C6(C)C)[C@]5(C)O4)NC(=O)[C@H](C)NC3=O)cc2)cc1` (stereo partly shown) [Compound 204]: the values for the IC50 in experiment [1] (setting [5]) and in experiment [3] were 250 nM and 25 nM, respectively. Further, in experiment [4], the MIC stood at 1.4 µg/mL.

Take `CCCCc1ccc(-c2ccc(C(=O)N[C@@H](CCCCN)C(=O)N[C@H]3COCCCCC[C@@H](C(=O)N[C@@H](C)B(O)O)NC(=O)[C@H](C)NC3=O)cc2)cc1` [Compound 205]: the IC50 came to 280 nM in experiment [1] (setting [5]) and 30 nM in experiment [3]. Besides, the MIC in experiment [4] is 2.8 µg/mL.

`CCCCc1ccc(-c2ccc(C(=O)N[C@@H](CCCCN)C(=O)N[C@H]3COCCCCOCC[C@@H](C(=O)N[C@@H](C)B4O[C@@H]5C[C@@H]6C[C@@H](C6(C)C)[C@]5(C)O4)NC(=O)[C@H](C)NC3=O)cc2)cc1` [Compound 207] showed a pIC50 in experiment [1] of 6.68. For the same compound, the IC50 in experiment [3] is 21 nM. In addition, the MIC in experiment [4] was found to be 1.3 µg/mL.

In the case of `CCCCc1ccc(-c2ccc(C(=O)N[C@@H](CCCCN)C(=O)N(C)[C@@H]3C(=O)N[C@@H](C)C(=O)N[C@H](C(=O)N[C@@H](C)B4O[C@@H]5C[C@@H]6C[C@@H](C6(C)C)[C@]5(C)O4)CCCCc4cc3ccc4OC)cc2)cc1` [Compound 209], the pIC50 in experiment [1] is 5.43; in experiment [3] it was 7.08. Also, in experiment [4], the MIC was 4 µg/mL.
